Reference: patent US20250171495A1, “MUTLI-TARGETED SERINE PROTEASE INHIBITORS FOR TREATMENT OF CANCER AND VIRAL INFECTION” (Washington University, priority 2023, published 2025)
Numbered stars: 1 amine (or outer) side, 2 acyl side, 3 side chain; on linkers, the order of the positions; unused ones are H or OH. Square brackets hold non-standard residues; d marks the D form. Peptide text beside a SMILES is read from it. X1 = N=C(N)NCCC[C@H](N[*:1])C(=O)c1nc2ccc(C(=O)[*:2])cc2s1

test system: VSV-SARS-CoV-2; assay: not given; details: VSV-

`CC(=O)N[C@H]1CC(=O)NCCCC[C@@H](C(=O)N[C@@H](CCCNC(=N)N)C(=O)c2nc3ccccc3s2)NC(=O)[C@H](CC(C)C)NC1=O` [VD2173, Ac-Cyclo(DLK)—R-ketobenzothiazole] showed an EC50 of 197 nM.

same assay, conditions: read-out: VSV SARS CoV-2 Cell Entry EC50

Molecule `CC(=O)N[C@@H](CCCCN)C(=O)N[C@@H](CCC(N)=O)C(=O)N[C@@H](CC(C)C)C(=O)N[C@@H](CCCNC(=N)N)C(=O)c1nc2ccccc2s1` [ZFH7006, N-[(S)-3-methyl-1-[N-(S)-1-[(1,3-benzothiazol-2-yl)carbonyl]-4-guanidinobutylcarbamoyl]butyl](S)-2-[(S)-1-acetylamino-5-aminopentylcarbonyl-amino]glutaramide] has an EC50 of 652 nM.

test system: VSV-SARS-CoV-2; assay: microbe, parasite or virus in culture; details: Vesicular stomatitis virus, Calu-3, in Homo sapiens, read-out: VSV SARS CoV-2 Cell Entry EC50 (nM)

In order of falling EC50:
1. CC(=O)N[C@H]1Cc2ccc(cc2)Oc2cccc(c2)C[C@@H](C(=O)N[C@@H](CCCNC(=N)N)C(=O)c2nc3ccccc3s2)NC(=O)[C@H](CC(C)C)NC1=O [VD5064B, N-[(S)-1-[(1,3-benzothiazol-2-yl)carbonyl]-4-guanidinobutyl]-(9S,12S,15S)-15-acetylamino-12-isobutyl-11,14-dioxo-2-oxa-10,13-diazatricyclo[15.2.2.1^3,^7]docosa-1(19),3,5,7(22),17,20-hexaene-9-carboxamide]  8370 nM
2. CC(=O)N[C@@H](CO)C(=O)N[C@@H](CCCCN)C(=O)N[C@@H](CC(C)C)C(=O)N[C@@H](CCCNC(=N)N)C(=O)c1nc2ccccc2s1 [ZFH7053, N-[(S)-3-methyl-1-[N-(S)-1-[(1,3-benzothiazol-2-yl)carbonyl]-4-guanidinobutylcarbamoyl]butyl](S)-2-[(S)-2-acetylamino-3-hydroxypropionylamino]-6-aminohexanamide]  4270 nM
3. CC(=O)N[C@H]1Cc2ccc(cc2)OCCCC[C@@H](C(=O)N[C@@H](CCCNC(=N)N)C(=O)c2nc3ccccc3s2)NC(=O)[C@@H](Cc2c[nH]c3ccccc23)NC1=O [VD4162B, N-[(S)-1-[(1,3-benzothiazol-2-yl)carbonyl]-4-guanidinobutyl]-(7S,10R,13S)-13-acetylamino-10-[(3-indolyl)methyl]-9,12-dioxo-2-oxa-8,11-diazabicyclo[13.2.2]nonadeca-1(17),15,18-triene-7-carboxamide]  2060 nM
4. CC(=O)N[C@@H](CC(C)C)C(=O)N[C@@H](CC(C)C)C(=O)N[C@@H](CCCNC(=N)N)C(=O)c1nccs1 [ZFH6201-1, N-[(S)-4-guanidino-1-[(1,3-thiazol-2-yl)carbonyl]butyl](S)-2-[(S)-2-acetylamino-4-methylvalerylamino]-4-methylvaleramide]  1840 nM
5. CC(=O)N[C@@H](CO)C(=O)N[C@@H](CCC(N)=O)C(=O)N[C@@H](CC(C)C)C(=O)N[C@@H](CCCNC(=N)N)C(=O)c1nccs1 [ZFH6138, N-[(S)-3-methyl-1-[N-(S)-4-guanidino-1-[(1,3-thiazol-2-yl)carbonyl]butylcarbamoyl]butyl](S)-2-[(S)-2-acetylamino-3-hydroxypropionylamino]glutaramide]  1320 nM
6. CC(=O)N[C@@H](CO)C(=O)N[C@@H](CCCCN)C(=O)N[C@@H](Cc1ccccc1)C(=O)N[C@@H](CCCNC(=N)N)C(=O)c1nccs1 [ZFH6095, N-[(S)-1-[N-(S)-4-guanidino-1-[(1,3-thiazol-2-yl)carbonyl]butylcarbamoyl]-2-phenylethyl](S)-2-[(S)-2-acetylamino-3-hydroxypropionylamino]-6-aminohexanamide]  1160 nM
7. CC(=O)N[C@@H](CCCCN)C(=O)N[C@@H](CCC(N)=O)C(=O)N[C@@H](CC(C)C)C(=O)N[C@@H](CCCNC(=N)N)C(=O)c1nc2ccccc2s1 [ZFH7006, N-[(S)-3-methyl-1-[N-(S)-1-[(1,3-benzothiazol-2-yl)carbonyl]-4-guanidinobutylcarbamoyl]butyl](S)-2-[(S)-1-acetylamino-5-aminopentylcarbonyl-amino]glutaramide]  572 nM
8. CC(=O)N[C@@H](CO)C(=O)N[C@@H](CCCCN)C(=O)N[C@@H](CC(C)C)C(=O)N[C@@H](CCCNC(=N)N)C(=O)c1nc2ccc(C(=O)N[C@H](C(N)=O)C(C)C)cc2s1 [ZFH7116, N-[(S)-1-carbamoyl-2-methylpropyl]-2-[(S)-2-[(S)-2-[(S)-1-[(S)-2-acetylamino-3-hydroxypropionylamino]-5-aminopentylcarbonyl-amino]-4-methylvalerylamino]-5-guanidinovaleryl]-1,3-benzothiazole-6-carboxamide] (Ac-SKL[X1]V-NH2)  489 nM
9. CC(=O)N[C@@H](CCCCN)C(=O)N[C@@H](CCC(N)=O)C(=O)N[C@@H](Cc1ccccc1)C(=O)N[C@@H](CCCNC(=N)N)C(=O)c1nccs1 [ZFH6101, N-[(S)-1-[N-(S)-4-guanidino-1-[(1,3-thiazol-2-yl)carbonyl]butylcarbamoyl]-2-phenylethyl](S)-2-[(S)-1-acetylamino-5-aminopentylcarbonylamino] glutaramide]  262 nM
10. CC(=O)N[C@@H](Cc1ccccc1)C(=O)N[C@@H](CC(C)C)C(=O)N[C@@H](Cc1ccccc1)C(=O)N[C@@H](CCCNC(=N)N)C(=O)c1nc2ccccc2s1 [ZFH7063, N-[(S)-1-[N-(S)-1-[(1,3-benzothiazol-2-yl)carbonyl]-4-guanidinobutylcarbamoyl]-2-phenylethyl](S)-2-[(S)-2-acetylamino-3-phenylpropionylamino]-4-methylvaleramide]  101 nM
